Test results from PMC7022493, “Kinetic, Thermodynamic, and Crystallographic Studies of 2-Triazolylthioacetamides as Verona Integron-Encoded Metallo-β-Lactamase 2 (VIM-2) Inhibitor” (Biomolecules, 2020).

What was measured:
[1] = biological target: T1, VIM-2 (Pseudomonas aeruginosa, UniProt Q9K2N0); assay: VIM-2 enzyme-inhibition assay with nitrocefin as substrate (UV-Vis, 482 nm); format: biochemical, P. aeruginosa
T1 construct: made in house; host or cells: E. coli BL21 (DE3), plasmid pET24a-VIM-2
Procedure: The VIM-2 was overexpressed and purified as previously described. In brief, E. coli BL21 (DE3) cells were transelected with plasmid pET24a-VIM-2. A 10 mL overnight culture of these cells in lysogeny broth (LB) was used to inoculate of M9 media containing kanamycin (25 μg/mL). The cells were allowed to grow at 37 °C with shaking until the optical density at 600 nm (OD600) reached 0.6–0.8. VIM-2 expression was induced with 1 mM IPTG at 25 °C overnight. Cells were collected by centrifugation and lysed by sonication. The supernatant collected by centrifugation was dialyzed three times at 4 °C and loaded on a Q-Sepharose column. Bound protein was eluted with a 0–500 mM NaCl gradient in 30 mM Tris, pH 7.6. The further purification of crude VIM-2 was run though a G75 column (GE Healthcare, Boston, MA, USA) and eluted with 20 mM Tris, pH 7.6, containing 150 mM NaCl, and 5% β-mercaptoethanol. Enzyme purity was analyzed by SDS-PAGE, and determined the concentration by measuring the absorption at 280 nm (extinction co-efficient: 39,000 M^−1cm^−1) using the Nanodrop 2000 c spectrophotometer (Thermo Scientific, Waltham, MA, USA).
The percent inhibition (inhibition%, enzyme activity without inhibitor minus residual activity with 100 μM inhibitor) and IC50 (the inhibitor concentrations causing 50% decrease of enzyme activity) values were measured using a previously established enzyme-inhibition assay on an Agilent UV8453 UV−Vis spectrophotometer using 60 μM nitrocefin (monitoring at 482 nm) as a substrate. The 2-triazolylthioacetamides 1a–j, 2a–e, and 3a–e were dissolved with DMSO and diluted with ddH2O. The VIM-2 and nitrocefin were prepared with a Tris buffer (30 mM, pH 7.6). The final concentration of DMSO inhibition experiments was below 1%. The IC50 values were determined in triplicate against VIM-2, where the inhibitor concentrations were varied between 0 and 120 µM, and final concentrations VIM-2 was 0.6 nM. The tested VIM-2 and inhibitors were premixed at room temperature (30 mM Tris, pH 7.6), and then the substrate in the same buffer was added to the mixture, the initial rates of nitrocefin hydrolysis were recorded at each inhibitor concentration. The percentage inhibition was calculated by the equation inhibition% = 1 − (Vi/V0) and IC50 values were calculated by plotting the average inhibition% against inhibitor concentration and fitting of the data.
To evaluate 2-triazolylthioactamides, the VIM-2 was expressed and purified as previously described. The steady-state kinetic assays were conducted on an Agilent UV8453 spectrometer using nitrocefin (60 µM) as a substrate and monitoring its hydrolytic product at 482 nm.
IC50 values of 1a–j against VIM-2 were measured in 30 mM Tris, pH 7.6, in which the concentrations of inhibitors were varied between 0 and 120 µM. […] Moreover, clogP values of 1a–j (Table 1), as predicted by the ALOGPS 2.1 program, are in the range 1.88–3.05, which are similar with many marked antibacterial agents.

[2] = system: E. coli DH10B-VIM-2; assay: MIC by broth micro-dilution, cefazolin alone or with inhibitors, E. coli producing VIM-2; format: cell-based; details: for Decrease in MIC of cefazolin: inhibitor 128 μg/mL
Procedure: The minimum inhibitory concentration (MIC) of antibiotics, both alone and in the presence of enzyme inhibitors, was determined using the broth micro-dilution method. E. coli DH10B containing plasmid pBCSK-VIM-2 grown in MH medium to OD600 = 0.45 were used as inocula, after an 84-fold dilution to 1 × 10^5 CFU/mL in MH medium. Cefazolin was dissolved in MH medium to prepare 1024, 512, 256, 128, 64, 32, 16, and 8 for E. coli producing VIM-2 stock solutions, respectively. Compounds 1a–j, 2a–e, and 3a–e were dissolved in DMSO and diluted with MH media to prepare 64 µg/mL stock solutions. The 50 μL prepared stock solutions with different cefazolin concentrations were diluted with a 50 μL inhibitor stock solution, then 100 μL inoculum was added sequentially. The final concentration of both the inhibitor and cefazolin were a quarter of the stock solution concentrations.
The ability of 2-triazolylthioactamides to restore the antimicrobial activity of cefazolin against the bacteria producing VIM-2 was investigated by determining the MICs of β-lactams in the presence and absence of inhibitors (16 μg/mL). E. coli DH10B containing plasmid pBCSK-VIM-2 was used to study these inhibitors. […] Although the strains treated with a high dose of 2-triazolylthioacetamides (128 μg/mL) were still resistant, they are promising in the future.

[3] = biological target: T1, VIM-2; assay: Binding affinity to VIM-2 by isothermal titration calorimetry (ITC); design: species or system P. aeruginosa; details: for TΔS / ΔH / Ka / ΔG: ITC, 298 K, Tris-HCl; for TΔS / ΔH / ΔG: pH 7.6; for Ka: pH 7.6, single binding site model; for ΔG: ∆G = ∆H − T∆S
Procedure: Binding affinity measurements were performed by ITC on a Malvern MicroCal-ITC200 at 298 K. The syringe stirring rate was 750 rpm and kept constant. A stock of VIM-2 and inhibitor (1b, 1c, and 1h) were prepared in Tris buffer (30 mM, pH 7.6) with 1% DMSO. The concentration of VIM-2 was 100 μM. Before the injections, the solution of enzyme and inhibitor were degassed by centrifugation (32,583× g, 5 min), respectively. Then, the prepared VIM-2 solution was transferred into the sample cell (210 μL), and the inhibitor (1 mM) in the syringe was titrated into the sample cell by 18 injections (0.5 μL for the first injection and 1.5 μL for the other 17 injections) with 120 s intervals per injection. The heat of dilution for the inhibitor was determined in the control experiment and subtracted from the integrated data before curve fitting. The data were fitted and analyzed with single binding sites using Origin 7.0 software, provided with the instrument.
To investigate the binding affinity of 2-triazolylthioactamides to VIM-2, 1b, 1c, and 1h as enzyme inhibitors were selected based on the inhibitory activity. […] After the best fitting by the single binding site model, the affinity constant (Ka), corresponding dissociation constant (Kd), and thermodynamic parameters (∆H, ΔS, and ΔG) were determined and listed in Table 3.

[4] = system: E. coli cells without VIM-2; assay: Antibacterial activity (MIC) against E. coli cells without VIM-2; format: cell-based; details: Escherichia coli, read-out: MIC of cefazolin

`O=C(CSc1nnc(-c2ccccc2C(=O)O)[nH]1)Nc1ccccc1Cl` [Compound 1g] was tested, and the IC50 [1] was 31.4 ± 0.4 µM and the “Decrease in MIC of cefazolin” value [2] was 32 fold.
In the case of `O=C(CSc1nnc(-c2ccccc2C(=O)O)[nH]1)Nc1nc2ccccc2s1` [Compound 1c], the Kd [3] is reported as 7.94 µM, the TΔS [3] is reported as 5.34 kcal/mol and the ΔH [3] is reported as -1.61 kcal/mol. The Ka [3] was 126000 M⁻¹, the ΔG [3] was -6.95 kcal/mol and the IC50 [1] was 49.1 ± 0.1 µM. For the same compound, the “Decrease in MIC of cefazolin” value [2] was 16 fold.
`O=C(CSc1nnc(-c2ccccc2C(=O)O)[nH]1)Nc1ccccc1` [Compound 1a] was tested, and the IC50 [1] was 40.8 ± 0.3 µM.
Compound `O=C(CSc1nnc(-c2ccccc2C(=O)O)[nH]1)Nc1ccc([N+](=O)[O-])cc1` [Compound 1e] has an IC50 [1] of 38.2 ± 0.3 µM.
In the case of `O=C(CSc1nnc(-c2ccccc2C(=O)O)[nH]1)NCc1ccccc1` [Compound 1f], the IC50 [1] is reported as 45.8 ± 0.2 µM.
With `O=C(CSc1nnc(-c2ccccc2C(=O)O)[nH]1)Nc1cccc(Cl)c1` [Compound 1h] the Kd [3] was 6.41 µM, the TΔS [3] was 1.98 kcal/mol and the ΔH [3] was -5.10 kcal/mol. For the same compound, the Ka [3] was 156000 M⁻¹, the ΔG [3] was -7.08 kcal/mol and the IC50 [1] was 20.6 ± 0.1 µM. For the same compound, the “Decrease in MIC of cefazolin” value [2] was 32 fold.
`O=C(CSc1nnc(-c2ccccc2C(=O)O)[nH]1)Nc1ccc(Cl)cc1` [Compound 1d] showed an IC50 [1] of 52.2 ± 0.5 µM.
Compound `O=C(CSc1nnc(-c2ccccc2C(=O)O)[nH]1)Nc1cccc([N+](=O)[O-])c1` [Compound 1j] has an IC50 [1] of 57.6 ± 0.4 µM.
In the case of `O=C(CSc1nnc(-c2ccccc2C(=O)O)[nH]1)Nc1ccccc1[N+](=O)[O-]` [Compound 1i], the IC50 [1] is reported as 45.2 ± 0.1 µM.
`O=C(CSc1nnc(-c2ccccc2C(=O)O)[nH]1)Nc1nc2ccccc2[nH]1` [Compound 1b] showed a Kd [3] of 8.62 µM, a TΔS [3] of 4.26 kcal/mol and a ΔH [3] of -2.66 kcal/mol. The Ka [3] was 116000 M⁻¹, the ΔG [3] was -6.92 kcal/mol and the IC50 [1] was 58.6 ± 0.1 µM. The “Decrease in MIC of cefazolin” value [2] was 16 fold.
With `Cc1nnc(SCC2=C(C(=O)O)N3C(=O)[C@@H](NC(=O)Cn4cnnn4)[C@H]3SC2)s1` [cefazolin, reference compound] the MIC [4] was 1 µg/mL and the MIC ([2]; Escherichia coli, DH10BVIM2, read-out: MIC of cefazolin) was 128 µg/mL.
